Data on eleven compounds can be found in PMC9227781, “Inhibitors of O-Acetylserine Sulfhydrylase with a Cyclopropane-Carboxylic Acid Scaffold Are Effective Colistin Adjuvants in Gram Negative Bacteria” (Pharmaceuticals, 2022).

Read-outs that look alike come from different tables or passages of the source.

One experiment has as its target T1, StOASS-B (Salmonella typhimurium, UniProt P29848).
T1 construct: His-tag (with TEV site) (cleaved yes); made in house; host or cells: E. coli Rosetta (DE3)
T1 sequence (P29848 1-303): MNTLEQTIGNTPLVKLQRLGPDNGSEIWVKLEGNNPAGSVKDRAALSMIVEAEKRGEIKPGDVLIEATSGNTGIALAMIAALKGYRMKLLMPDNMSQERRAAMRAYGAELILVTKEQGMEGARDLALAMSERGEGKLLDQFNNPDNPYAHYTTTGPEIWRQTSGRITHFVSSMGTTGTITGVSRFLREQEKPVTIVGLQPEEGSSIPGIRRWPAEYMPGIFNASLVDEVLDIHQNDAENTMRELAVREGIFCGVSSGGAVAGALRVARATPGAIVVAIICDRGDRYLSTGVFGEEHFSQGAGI
Kind of experiment: Fluorescence binding assay on purified recombinant StOASS-B. How it is done: (§1) The affinity of the compounds for StOASS-A and StOASS-B was determined on the purified recombinant proteins by an in vitro fluorescence binding assay. Measurements were carried out at 20 °C in a 3 mm pathlength quartz microcuvette in 100 mM HEPES, 5% DMSO (Applichem, Darmstadt, Germany), pH 7.0, using a Fluoromax-4 (Horiba Jobin-Yvon, Kyoto, Japan) spectrofluorometer. Emission spectra of solutions containing 0.2–1.0 μM StOASS, upon excitation of the pyridoxal 5′-phosphate cofactor at 412 nm, in the presence of increasing concentrations of compounds were collected; fluorescence intensities at 500 nm were plotted to compound concentration and data were fitted to a binding isotherm: I=I0+ΔI·compound/KD+compound where I is the fluorescence emission intensity at 500 nm in the presence of a given concentration of compound, I0 is the initial fluorescence emission in the absence of ligands, ΔI is the amplitude of the fluorescence emission change and KD is the dissociation constant. When the KD was lower than the protein concentration, data were fitted to the quadratic equation: I=I0+ΔI·OASS+compound+KD−OASS+compound+KD^2−4·OASS·compound/2
(§2) Data were collected in duplicate.
(§3) Esters were tested up to a concentration of 100 μM and no binding was observed.

A further experiment has as its system E. coli ATCC 25922. Put plainly: MIC by broth microdilution, E. coli. The class given is cell-based, Escherichia coli. The note with it: Escherichia coli, ATCC25922; compound alone, MHB, 24 h at 37 °C; read-out: MIC (μg/mL) E.coli ATCC 25922. As to the method: (§4) MIC values were evaluated following CLSI guidelines with some modifications, as referred to in previous work. Twofold dilutions 25.6–0.05 mg/mL of the tested compounds were performed in DMSO in separate 96-well microtiter U-plates (Greiner, Milan, Italy). In a different 96-well microtiter U-plate, for each well of the replicates, 49 µL of broth medium were added. Then, in each well of the plate, one microliter of each compound at variable dilution in DMSO was added. For each test, three independent experiments with three replicates each were performed. Tested reference bacterial strains (E. coli ATCC25922; S. Typhimurium ATCC14028; K. pneumoniae ATCC13883) were brought to the logarithmic phase of growth in MHB medium by incubation at 37 °C for 24 h. After incubation, bacterial suspensions were centrifuged (2000 rpm, 4 °C for 20 min), and then the pellets were resuspended in 100 mM phosphate buffer, pH 7.0, to reach a final bacterial concentration of 10^8 CFU/mL, adjusted by spectrophotometry (OD620nm ranged between 0.08–0.13). The obtained suspensions were further diluted 1:100 in broth medium to reach a bacterial concentration of 10^6 CFU/mL. Fifty µL of the bacterial suspension containing 10^6 CFU/mL were inoculated into each well within 30 min, to obtain a final concentration of 5 × 10^5 CFU/mL in a total volume of 100 µL. The final dilution range tested was 256–0.5 µg/mL. Growth and sterility controls were performed for each strain and for each tested compound. Plates were then incubated for 24 h at 37 °C in a static aerobic atmosphere. After incubation, plates were read by unaided eye with a microtiter reading mirror and then the OD of each well of the plates was measured spectrophotometrically at 620 nm. MIC values were calculated as the arithmetic mean ± standard deviation (SD) of the unaided eye reading and the inhibition of growth for each tested dilution was calculated from the OD values (mean ± SD). A quality control microorganism (E. coli ATCC 25922) was tested periodically to validate the accuracy of the procedure.
A general note: In broth dilution the organism is exposed to a series of concentrations in liquid medium.

A further experiment has as its target T2, StOASS-A (Salmonella typhimurium, UniProt P0A1E3).
T2 construct: His-tag (with TEV site) (cleaved yes); made in house; host or cells: E. coli Rosetta (DE3)
Put plainly: Fluorescence binding assay on purified recombinant StOASS-A. Also noted: species or system S. Typhimurium. How it is done:
as §1, §2, §3

The next experiment relates to S. Typhimurium ATCC14028. Kind of experiment: MIC by broth microdilution, S. Typhimurium. The experiment is classed as cell-based, Salmonella enterica serovar Typhimurium. The conditions noted are these: Salmonella enterica; compound alone, MHB, 24 h at 37 °C; read-out: MIC (μg/mL) S. Typhimurium ATCC14028. As to the method:
as §4

The subject of another experiment is K. pneumoniae ATCC13883. Put plainly: MIC by broth microdilution, K. pneumoniae. The experiment is classed as cell-based, Klebsiella pneumoniae. The conditions noted are these: Klebsiella pneumoniae, ATCC13883; compound alone, MHB, 24 h at 37 °C; read-out: MIC (μg/mL) K. pneumoniae ATCC13883. How it is done:
as §4

[1] abbreviates: 20 °C, 100 mM HEPES, 5% DMSO, pH 7.0, racemic mixture, esters tested up to 100 μM.
Setting [2] is: 20 °C, 100 mM HEPES, 5% DMSO, pH 7.0, racemic mixture, esters tested up to 100 μM, read-out: KD (μM) OASS-A.

T2 sequence (P0A1E3 whole entry): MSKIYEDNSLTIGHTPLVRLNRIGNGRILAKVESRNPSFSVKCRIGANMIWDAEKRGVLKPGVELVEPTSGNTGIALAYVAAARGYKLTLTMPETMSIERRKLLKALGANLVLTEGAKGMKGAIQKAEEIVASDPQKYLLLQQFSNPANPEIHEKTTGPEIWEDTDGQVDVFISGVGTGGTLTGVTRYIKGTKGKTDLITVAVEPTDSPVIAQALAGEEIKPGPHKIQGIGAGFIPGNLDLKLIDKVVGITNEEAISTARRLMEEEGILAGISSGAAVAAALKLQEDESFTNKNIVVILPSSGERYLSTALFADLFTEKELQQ

As for `CCOC(=O)[C@]1(Cc2ccc(C)cc2)C[C@H]1c1cccc(-c2ccccc2)c1` (relative stereo) [Compound 8d, trans-ethyl 2-([1,1′-biphenyl]-3-yl)-1-(4-methylbenzyl)cyclopropanecarboxylate], at StOASS-B (setting [1]), the “KD (μM) OASS-B” value was “No binding”. The MIC in the experiment on E. coli ATCC 25922, in the experiment with S. Typhimurium ATCC14028 and in the experiment with K. pneumoniae ATCC13883 was greater than 512 µg/mL each time. Moreover, on StOASS-A (setting [1]), the “KD (μM) OASS-A” value is on record as “No binding”.

For `Cc1ccc(C[C@@]2(C(=O)O)C[C@H]2c2cccc(-c3cnc(N)nc3)c2)cc1` (relative stereo) [Compound 9a, trans-2-(3-(2-aminopyrimidin-5-yl)phenyl)-1-(4-methylbenzyl)cyclopropanecarboxylic acid], the results for the Kd at StOASS-B and at StOASS-A (setting [2]) were 1.29 ± 0.09 µM and 0.57 ± 0.16 µM, respectively. Moreover, the MIC in the experiment with E. coli ATCC 25922, in the experiment with S. Typhimurium ATCC14028 and with K. pneumoniae ATCC13883 was greater than 512 µg/mL throughout.

With `Cc1ccc(C[C@@]2(C(=O)O)C[C@H]2c2cccc(-c3c[nH]nc3C)c2)cc1` (relative stereo) [Compound 9b, trans-2-(3-(3-methyl-1H-pyrazol-4-yl)phenyl)-1-(4-methylbenzyl)cyclopropanecarboxylic acid], the Kd (in general, a measure of binding affinity in units of concentration) at StOASS-B came to 2.63 ± 0.04 µM; at StOASS-A (setting [2]) it was 1.86 ± 0.76 µM. For the same compound, the MIC in the experiment with E. coli ATCC 25922, with S. Typhimurium ATCC14028 and with K. pneumoniae ATCC13883 was greater than 512 µg/mL throughout.

As for `Cc1ccc(C[C@@]2(C(=O)O)C[C@H]2c2cccc(-c3cn[nH]c3)c2)cc1` (relative stereo) [Compound 9c, trans-2-(3-(1H-pyrazol-4-yl)phenyl)-1-(4-methylbenzyl)cyclopropanecarboxylic acid], the Kd at StOASS-B is 3.05 ± 0.18 µM; at StOASS-A (setting [2]) it was 1.01 ± 0.38 µM. The MIC in the experiment on E. coli ATCC 25922, with S. Typhimurium ATCC14028 and in the experiment with K. pneumoniae ATCC13883 was greater than 512 µg/mL throughout.

On to `Cc1ccc(C[C@@]2(C(=O)O)C[C@H]2c2cccc(-c3ccccc3)c2)cc1` (relative stereo) [Compound 9d, trans-2-([1,1′-biphenyl]-3-yl)-1-(4-methylbenzyl)cyclopropanecarboxylic acid], for which the Kd at StOASS-B was determined as 6.8 ± 1.1 µM; at StOASS-A (setting [2]), 2.51 ± 0.61 µM. Besides, the MIC with E. coli ATCC 25922, in the experiment on S. Typhimurium ATCC14028 and in the experiment on K. pneumoniae ATCC13883 was greater than 512 µg/mL in each case.

Turning to `Cc1ccc(C[C@@]2(C(=O)O)C[C@H]2c2cccc(-c3cc(O)cc(F)c3)c2)cc1` (relative stereo) [Compound 9e, trans-2-(3′-fluoro-5′-hydroxy-[1,1′-biphenyl]-3-yl)-1-(4-methylbenzyl)cyclopropanecarboxylic acid], the Kd worked out at 0.61 ± 0.08 µM on StOASS-B and 0.035 ± 0.003 µM at StOASS-A (setting [2]). Further, the MIC in the experiment on E. coli ATCC 25922, in the experiment on S. Typhimurium ATCC14028 and in the experiment on K. pneumoniae ATCC13883 was greater than 512 µg/mL each time. Further, the “KD (μM) OASS-A” value at StOASS-A (setting [1]) is on record as “low nanomolar range”.

Regarding `Cc1ccc(C[C@@]2(C(=O)O)C[C@H]2c2cccc(-c3cccc(F)c3)c2)cc1` (relative stereo) [Compound 9f, trans-2-(3′-fluoro-[1,1′-biphenyl]-3-yl)-1-(4-methylbenzyl)cyclopropanecarboxylic acid], the Kd is 1.45 ± 0.31 µM on StOASS-B and 0.051 ± 0.004 µM on StOASS-A (setting [2]). Further, the MIC in the experiment with E. coli ATCC 25922, with S. Typhimurium ATCC14028 and with K. pneumoniae ATCC13883 was greater than 512 µg/mL in each case. For the same compound, the “KD (μM) OASS-A” value on StOASS-A (setting [1]) is given as “low nanomolar range”.

As to `Cc1ccc(C[C@@]2(C(=O)O)C[C@H]2c2cccc(N3CCOCC3)c2)cc1` (relative stereo) [Compound 13g, trans-1-(4-methylbenzyl)-2-(3-morpholinophenyl)cyclopropanecarboxylic acid], the Kd on StOASS-B turned out to be 3.86 ± 0.29 µM; on StOASS-A (setting [2]) it was 0.1 ± 0.01 µM. For the same compound, the MIC in the experiment with E. coli ATCC 25922, in the experiment with S. Typhimurium ATCC14028 and in the experiment on K. pneumoniae ATCC13883 was greater than 512 µg/mL in each case.

As to `Cc1ccc(C[C@@]2(C(=O)O)C[C@H]2c2cccc(N3CCNCC3)c2)cc1` (relative stereo) [Compound 21i, trans-1-(4-methylbenzyl)-2-(3-(piperazin-1-yl)phenyl)cyclopropanecarboxylic acid], the “KD (μM) OASS-B” value on StOASS-B (setting [1]) is “detrimental effect”. Also, the Kd worked out at 83.8 ± 16.1 µM at StOASS-B (20 °C, 100 mM HEPES, 5% DMSO, pH 7.0, racemic mixture, esters tested up to 100 μM, read-out: KD (μM) OASS-B) and 0.45 ± 0.09 µM at StOASS-A. The MIC in the experiment with E. coli ATCC 25922, in the experiment on S. Typhimurium ATCC14028 and with K. pneumoniae ATCC13883 was greater than 512 µg/mL throughout. Also, the “KD (μM) OASS-A” value on StOASS-A (setting [1]) is listed as “good activity”.

For the compound `Cc1ccc(C[C@@]2(C(=O)O)C[C@H]2c2cccc(N3CCN(C)CC3)c2)cc1` (relative stereo) [Compound 21j, trans-1-(4-methylbenzyl)-2-(3-(4-methylpiperazin-1-yl)phenyl)cyclopropanecarboxylic acid], the dissociation constant (Kd) at StOASS-B came to 23.6 ± 4.5 µM; on StOASS-A (setting [2]), 0.25 ± 0.06 µM. For the same compound, the “KD (μM) OASS-B” value on StOASS-B (setting [1]) was “detrimental effect”. The MIC in the experiment with E. coli ATCC 25922, in the experiment on S. Typhimurium ATCC14028 and with K. pneumoniae ATCC13883 was greater than 512 µg/mL throughout. Moreover, the “KD (μM) OASS-A” value on StOASS-A (setting [1]) is on record as “good activity”.

Regarding `CCOC(=O)C1(Cc2ccc(C)cc2)CC1c1cccc(-c2cnc(N)nc2)c1` (centres unmarked) [Compound 8a, ethyl 2-(3-(2-aminopyrimidin-5-yl)phenyl)-1-(4-methylbenzyl)cyclopropanecarboxylate], the MIC in the experiment with E. coli ATCC 25922, with S. Typhimurium ATCC14028 and with K. pneumoniae ATCC13883 was greater than 512 µg/mL each time.
